Assay results taken from patent publication US20230321055A1, “PREVENTIVE TREATMENT OF MIGRAINE” (priority 2022, published 2023).

Tested on: participants with chronic migraine
Assay: Same phase 3 study: patient-reported outcomes (MSQ v2.1, AIM-D, HIT-6, WPAI, PGI-C, treatment satisfaction, EQ-5D-5L)
Assay type: in vivo, human
Conditions: for Change from Baseline in HIT-6 total score at Week 12, LS Mean / Change from Baseline in HIT-6 total score at Week 12, LSMD Atogepant vs. Placebo / Change from Baseline in MSQ v2.1 Role Function - Restrictive Domain Score at Week 12, LS Mean / Change from Baseline in MSQ v2.1 Role Function - Restrictive Domain Score at Week 12, LSMD Atogepant vs. Placebo: Off-Treatment Hypothetical Estimand population
Text: The MSQ v2.1 is a 14-item questionnaire designed to measure health-related quality of life impairments attributed to migraine in the past 4 weeks. It is divided into three domains: Role Function Restrictive assesses how migraines limit one's daily social and work-related activities; Role Function Preventive assesses how migraines prevent these activities; and the Emotional Function domain assesses the emotions associated with migraine. Participants respond to items using a 6-point scale ranging from “none of the time” to “all of the time.” Raw dimension scores are computed as a sum of item responses and rescaled to a 0 to 100 scale, where higher scores indicate better quality of life.
The AIM-D (Activity Impairment in Migraine — Diary) is an 11-function daily diary measure that assesses the impact of migraine. It is comprised of two domains that evaluate performance of daily activities (PDA: 7 items) and physical impairment (PI: 4 items). […] The AIM-D was developed as an electronic daily diary with the same set of questions administered in headache and non-headache versions. Raw domain scores are rescaled to a 0 to 100 scale, where higher scores indicate greater impact of migraine.
The HIT-6 (Headache Impact Test) is a 6-question assessment used to measure the impact headaches have on a participant's ability to function on the job, at school, at home, and in social situations. It assesses the effect that headaches have on normal daily life and the participant's ability to function. Responses are based on frequency using a 5-point scale ranging from “never” to “always.” The HIT-6 total score, which ranges from 36 to 78, is the sum of the responses—each of which is assigned a score ranging from 6 points (never) to 13 points (always)—with higher scores indicating larger impact due to headache. Yang et al., “Validation of the Headache Impact Test (HIT-6™) across episodic and chronic migraine”, Cephalalgia, 2011 February; 31(3): 357−367.
Secondary endpoints included change from baseline in mean monthly headache days across the 12 week treatment period; change from baseline in mean monthly acute medication use days across the 12-week treatment period; at least a 50% reduction in mean monthly migraine days across the 12-week treatment period; change from baseline in MSQ v2.1 Role Function-Restrictive domain score at week 12; change from baseline in mean AIM-D monthly functioning and activity impairment score across the 12-week treatment period; and change from baseline in HIT-6 total score at week 12.
FIG. 8 and Table 5 show the change from baseline in AIM-D Performance of Daily Activities at Weeks 1-4, 5-8, and 9-12 and across 12 weeks. FIG. 9 and Table 6 show change from baseline in WPAI Overall Work Productivity Loss at Weeks 1-4, 5-8, and 9-12. […] A graphical approach with weighted Bonferroni test procedure was used to control the overall type I error rate at the 2-sided α=0.05 level for key secondary endpoint comparisons between each atogepant dose vs placebo. For exploratory endpoints, nominal P values were provided without adjusting for multiplicity.
Patient-reported outcome (PRO) measures included the Performance of Daily Activities (PDA) and Physical Impairment (PI) domains of the Activity Impairment in Migraine-Diary (AIM-D), and the 5-level European Quality of Life-5 Dimension (EQ-5D-5L) descriptive system and visual analogue scale (VAS), implemented via daily diary. Scores in each domain were transformed to a 0-100 scale with higher scores indicating a greater burden from migraine. Changes in PDA and PI scores and the proportion of participants achieving clinically meaningful within-patient change in the PDA domain (≥12.5 points) and PI domain (≥10 points) were compared between participants who received atogepant vs placebo. EQ-5D-5L measures 5 dimensions of QOL, including mobility, self-care, usual activities, pain/discomfort, and anxiety/depression. […]

[1] = 30 mg BID, week 12, mITT, listed as atogepant
[2] = 60 mg QD, week 12, mITT, listed as atogepant
[3] = 60 mg, within the first 2 weeks
[4] = both doses (30 mg BID, 60 mg QD), all time points

## C[C@@H]1[C@H](c2c(F)ccc(F)c2F)C[C@H](NC(=O)c2cnc3c(c2)C[C@@]2(C3)C(=O)Nc3ncccc32)C(=O)N1CC(F)(F)F [Atogepant, (S)—N—((3S,5S,6R)-6-methyl-2-oxo-1-(2,2,2-trifluoroethyl)-5-(2,3,6-trifluorophenyl)piperidin-3-yl)-2′-oxo-1′,2′,5,7-tetrahydrospiro[cyclopenta[b]pyridine-6,3′-pyrrolo[2,3-b]pyridine]-3-carboxamide]
30 mg BID
  Change from Baseline in HIT-6 total score at Week 12, LS Mean: −8.47
  Change from Baseline in HIT-6 total score at Week 12, LSMD Atogepant vs. Placebo: −3.30
  Change from Baseline in MSQ v2.1 Role Function - Restrictive Domain Score at Week 12, LS Mean: 24.74
  Change from Baseline in MSQ v2.1 Role Function - Restrictive Domain Score at Week 12, LSMD Atogepant vs. Placebo: 7.43
30 mg BID, Week 4
  Change from Baseline in WPAI Overall Work Productivity Loss, LSMD vs placebo: −12.69
30 mg BID, Week 8
  Change from Baseline in WPAI Overall Work Productivity Loss, LSMD vs placebo: −8.61
30 mg BID, Weeks 1-4
  Change from Baseline in AIM-D Performance of Daily Activities, LSMD vs placebo: −5.44
30 mg BID, Weeks 5-8
  Change from Baseline in AIM-D Performance of Daily Activities, LSMD vs placebo: −4.75
30 mg BID, Weeks 9-12
  Change from Baseline in AIM-D Performance of Daily Activities, LSMD vs placebo: −4.36
30 mg BID, mITT
  Change from baseline in MSQ v2.1 role function restrictive domain score at week 12, LS Mean: 25.15
  Change from baseline in MSQ v2.1 role function restrictive domain score at week 12, LSMD Atogepant vs. Placebo: 7.96
  Change from baseline in mean monthly performance of daily activities domain score of the AIM-D across the 12-week treatment period, LS Mean: −14.29
  Change from baseline in mean monthly performance of daily activities domain score of the AIM-D across the 12-week treatment period, LSMD Atogepant vs. Placebo: −4.85
  Change from baseline in mean monthly physical impairment domain score of the AIM-D across the 12-week treatment period, LS Mean: −12.11
  Change from baseline in mean monthly physical impairment domain score of the AIM-D across the 12-week treatment period, LSMD Atogepant vs. Placebo: −4.19
30 mg BID, week 12
  Change from Baseline in WPAI Overall Work Productivity Loss, LSMD vs placebo: −7.94
  MSQ v2.1 Emotional Function domain score change from baseline, LSMD vs placebo: 6.36
  MSQ v2.1 Role Function-Preventive domain score change from baseline, LSMD vs placebo: 8.10
30 mg BID, week 12, mITT
  PGI-C responders: 153/239
  PGI-C responders (much better or very much better), Percentage: 64.0%
  PGI-C responders, OR (95% CI) vs placebo: 3.36 (2.29, 4.94)
  Satisfaction with study medication (satisfied or extremely satisfied), Percentage: 64.6%
  Satisfaction with study medication responders: 148/229
  Satisfaction with study medication, OR (95% CI) vs placebo: 2.67 (1.82, 3.91)
[1]
  PGI-C responders (much better or very much better), Percentage: 64.0%
  Satisfaction with study medication (satisfied or extremely satisfied), Percentage: 64.6%
60 mg QD
  Change from Baseline in HIT-6 total score at Week 12, LS Mean: −7.83
  Change from Baseline in HIT-6 total score at Week 12, LSMD Atogepant vs. Placebo: −2.66
  Change from Baseline in MSQ v2.1 Role Function - Restrictive Domain Score at Week 12, LS Mean: 23.09
  Change from Baseline in MSQ v2.1 Role Function - Restrictive Domain Score at Week 12, LSMD Atogepant vs. Placebo: 5.78
60 mg QD, Week 4
  Change from Baseline in WPAI Overall Work Productivity Loss, LSMD vs placebo: −15.26
60 mg QD, Week 8
  Change from Baseline in WPAI Overall Work Productivity Loss, LSMD vs placebo: −11.33
60 mg QD, Weeks 1-4
  Change from Baseline in AIM-D Performance of Daily Activities, LSMD vs placebo: −4.44
60 mg QD, Weeks 5-8
  Change from Baseline in AIM-D Performance of Daily Activities, LSMD vs placebo: −3.59
60 mg QD, Weeks 9-12
  Change from Baseline in AIM-D Performance of Daily Activities, LSMD vs placebo: −2.11
60 mg QD, mITT
  Change from baseline in MSQ v2.1 role function restrictive domain score at week 12, LS Mean: 23.33
  Change from baseline in MSQ v2.1 role function restrictive domain score at week 12, LSMD Atogepant vs. Placebo: 6.15
  Change from baseline in mean monthly performance of daily activities domain score of the AIM-D across the 12-week treatment period, LS Mean: −12.82
  Change from baseline in mean monthly performance of daily activities domain score of the AIM-D across the 12-week treatment period, LSMD Atogepant vs. Placebo: −3.38
  Change from baseline in mean monthly physical impairment domain score of the AIM-D across the 12-week treatment period, LS Mean: −10.63
  Change from baseline in mean monthly physical impairment domain score of the AIM-D across the 12-week treatment period, LSMD Atogepant vs. Placebo: −2.71
60 mg QD, week 1
  participants achieving clinically relevant reduction with AIM-D PDA of ≥12.5: 42.9%
  participants achieving clinically relevant reduction with AIM-D PI of ≥10: 43.7%
60 mg QD, week 1, mITT
  AIM-D PDA change from baseline, LSMD vs placebo: −5.83
  AIM-D PI change from baseline, LSMD vs placebo: −4.12
60 mg QD, week 12
  Change from Baseline in WPAI Overall Work Productivity Loss, LSMD vs placebo: −9.64
  MSQ v2.1 Emotional Function domain score change from baseline, LSMD vs placebo: 6.81
  MSQ v2.1 Role Function-Preventive domain score change from baseline, LSMD vs placebo: 6.86
60 mg QD, week 12, mITT
  PGI-C responders: 130/246
  PGI-C responders (much better or very much better), Percentage: 52.8%
  PGI-C responders, OR (95% CI) vs placebo: 2.16 (1.48, 3.15)
  Satisfaction with study medication (satisfied or extremely satisfied), Percentage: 59.2%
  Satisfaction with study medication responders: 138/233
  Satisfaction with study medication, OR (95% CI) vs placebo: 2.16 (1.49, 3.15)
[2]
  PGI-C responders (much better or very much better), Percentage: 52.8%
  Satisfaction with study medication (satisfied or extremely satisfied), Percentage: 59.2%
[3]
  EQ-5D-5L VAS score, LSMD vs placebo: 4.47
  mean EQ-5D-5L descriptive system score, LSMD vs placebo: 0.04
All time points and doses, nominal P<0.001
  proportion meeting HIT-6 responder criteria (score reduction ≥5 points) vs placebo: nominally significantly greater
[4]
  WPAI activity impairment vs. placebo: Nominally significant improvements
  WPAI presenteeism vs. placebo: Nominally significant improvements
Both doses (30 mg BID, 60 mg QD), weeks 4 and 12
  WPAI absenteeism vs. placebo: Nominally significant improvements
Both doses, weeks 4 and 8, nominal P<0.001
  HIT-6 scores vs placebo: nominally significant improvements
